The subject of the data set is neuromuscular junction. The data set is described as follows: Rabbit paw twitch analysis (neuromuscular blocking activity). The data set is classed as in vivo, Male New Zealand white rabbits. The text has this:
In a large series of similar relaxants, the rabbit dose is typically 125% of that in mice. The mechanism of action was also confirmed in this test by observing train-of-four and tetanus fade, post-tetanic potentiation of single twitches and administration of the anticholinesterase drug neostigmine which reverses the relaxation. Reversibility, rapid onset and short duration are important factors to the anesthesiologist.
The following is a brief description of the methodologies used in rabbits to describe neuromuscular blocking activity of the subject compounds. A more detailed description of these methods is presented in "Microcomputer Use in Measuring Onset, Duration, and Recovery from Non-Depolarizing Skeletal Muscle Relaxants in Rabbits", P.D. Thut et al., Drug development Research 5:182, 1985.
Male New Zealand white rabbits weighing between 2.5 and 3.4 kg were anesthetized with pentobarbital (30 mg/kg) and placed on their backs upon a 40°C water filled temperature regulation pad. Following tracheostomy, the lungs were mechanically ventilated at 28 breaths per minute with room air, using an open system delivering 200 ml/stroke. This ventilation maintained pCO₂ at 38 […] and pO₂ at 85 mmHg. Direct arterial blood pressure was measured from the right common carotid artery. The test compounds were administered through a cannula placed in the marginal ear vein. Each foreleg was taped to a cushioned plate held in a femur clamp attached to the spinal board rack. The left centeral digit of each paw was connected to a force displacement transducer for measurement of muscle tension. Nerve stimulation was provided by pairs of pin electrodes placed on both sides of the ulnar nerve at the elbow of both forearms. The right ulnar nerve was stimulated at 1 Hz, 1 pps for .5 msec duration. The left ulnar nerve was similarly stimulated, every 15 seconds, with addition of interspersed trains-of-four and tetanizing stimuli. The parameters reported in Table II are: potency (ED90), which is the dose required to depress twitch tension to 10% of its control value; onset (T85%), which is the time from injection until 85% of the maximal drug effect is achieved; duration, which is the time from injection until the train-of-four has recovered to 75%; blood pressure (BP), which is the percentage change of pre-drug blood pressure; and heart rate (HR), which is the percentage change from pre-drug heart rate.

The results in this text go back to patent EP0498941A2, “Peptide skeletal muscle relaxants” (BOC Health Care, Inc., priority 1991, dated 1992).

In the case of `CC(=O)O[C@H]1C[C@@H]2CC[C@@H]3[C@H](CC[C@@]4(C)[C@H]3C[C@H]([N+]3(C)CCCCC3)[C@@H]4OC(C)=O)[C@@]2(C)C[C@@H]1[N+]1(C)CCCCC1` [pancuronium], for the setting “rabbit, in vivo”, the BP was 2.70 % change, the Duration was determined as 35.50 min, the ED9O is on record as 0.02 mg/kg and the HR stood at 0.00 % change. For the same compound, the T85% (rabbit, in vivo) stood at 147.50 s.
Consider `COc1ccc(CC2c3cc(OC)c(OC)cc3CC[N+]2(C)CCC(=O)OCCCCCOC(=O)CC[N+]2(C)CCc3cc(OC)c(OC)cc3C2Cc2ccc(OC)c(OC)c2)cc1OC` (stereo not shown) [atracurium], for which the ED90 (Oryctolagus cuniculus, iv, potency: dose required to depress twitch tension to 10% of its control value, pentobarbital-anesthetized rabbits, marginal ear vein) turned out to be 0.05 mg/kg. Besides, the T85% (onset: time from injection until 85% of the maximal drug effect is achieved, equi-efficacious dose) is 126.90 s. For the same compound, the Duration (time from injection until the train-of-four has recovered to 75%, equi-efficacious dose) worked out at 14.30 min.
Turning to `CC(=O)O[C@H]1C[C@@H]2CC[C@@H]3[C@H](CC[C@@]4(C)[C@H]3C[C@H]([N+]3(C)CCCCC3)[C@@H]4OC(C)=O)[C@@]2(C)C[C@@H]1N1CCCCC1` [vecuronium], where the note is “rabbit, in vivo”, the BP worked out at 1.10 % change, the Duration is 16.80 min, the ED9O was found to be 0.02 mg/kg and the HR entry is listed as “- 9.90 % change”. Besides, the T85% (rabbit, in vivo) is 97.30 s.
